From ChEMBL document CHEMBL3880397, “Glucopyranosyloxypyrazole derivatives and use thereof in medicines” (2004)

Columns and labels:
[1] = test system: Rattus norvegicus; test: Reduction in urinary glucose excretion in overnight fasted Sprague-Dawley rat assessed as urinary glucose concentration per 200 g of body weight per 24 hours at 1 mg/kg, po; format: functional
[2] = test system: Rattus norvegicus; test: Reduction in urinary glucose excretion in overnight fasted Sprague-Dawley rat assessed as urinary glucose concentration per 200 g of body weight per 24 hours at 3 mg/kg, po; format: functional
[3] = Oral bioavailability in Sprague-Dawley rat at 10 mg/kg after 15 to 240 mins by LC-MS/MS method; format: ADME, organism-based; details: in vivo
[4] = test system: Rattus norvegicus; test: Reduction in urinary glucose excretion in overnight fasted Sprague-Dawley rat assessed as urinary glucose concentration per 200 g of body weight per 24 hours at 10 /kg, po; format: functional
[5] = Oral bioavailability in Sprague-Dawley rat at 10 mg/kg after 15 to 240 mins by HPLC method; format: ADME, organism-based; details: in vivo
[6] = Toxicity in ICR mouse assessed as induction of mouse mortality by measuring death incidence at 2000 mg/kg, po measured up to 24 hrs post dose; format: organism-based; details: in vivo

Row | Compound | Activity [1] | Activity [2] | bioavailability [3] | Activity [4] | bioavailability [5] | Activity [6]
1 | COC(=O)OC[C@H]1O[C@@H](Oc2nn(C(C)C)c(C)c2Cc2ccc(OC(C)C)cc2)[C@H](O)[C@@H](O)[C@@H]1O | 1.7 mg | 36.8 mg | 27% | 167.3 mg | – | –
2 | Cc1c(Cc2ccc(OC(C)C)cc2)c(O[C@@H]2O[C@H](COC(=O)OCC(C)C)[C@@H](O)[C@H](O)[C@H]2O)nn1C(C)C | – | – | 32% | – | – | –
3 | Cc1[nH]nc(O[C@@H]2O[C@H](CO)[C@@H](O)[C@H](O)[C@H]2O)c1Cc1ccc(OC(C)C)cc1 | – | – | – | – | 0% | –
4 | Cc1[nH]nc(O[C@@H]2O[C@H](CO)[C@@H](O)[C@H](O)[C@H]2O)c1Cc1ccc(C(C)C)cc1 | – | – | – | – | 15% | –
5 | CSc1ccc(Cc2c(O[C@@H]3O[C@H](CO)[C@@H](O)[C@H](O)[C@H]3O)n[nH]c2C(F)(F)F)cc1 | – | – | – | – | 11% | Non-Toxic
6 | CCOC(=O)OC[C@H]1O[C@@H](Oc2nn(C(C)C)c(C)c2Cc2ccc(OC(C)C)cc2)[C@H](O)[C@@H](O)[C@@H]1O [REMOGLIFLOZIN ETABONATE] | 1.6 mg | 28.3 mg | 27% | 127.5 mg | – | –
